The record followed here is publication PMC6020026 (Bioorganic & medicinal chemistry letters, 2017).

The data set is described as follows: Cytotoxicity on differentiated THP-1 macrophages. It is filed as cell-based. The settings on record: human.
Where [1] appears, read: differentiated THP-1 macrophages.

A word on the CC50: it is the concentration that lowers cell viability or growth by half. Read a low CC50 as harm at low concentration. Take `C[C@@H]1[C@H](O)[C@@H](C)/C=C/C=C/C=C/C=C/C=C/C=C/C=C/[C@H](O[C@@H]2O[C@H](C)[C@@H](O)[C@H](N)[C@@H]2O)C[C@@H]2O[C@](O)(C[C@@H](O)C[C@@H](O)[C@H](O)CC[C@@H](O)C[C@@H](O)CC(=O)O[C@H]1C)C[C@H](O)[C@H]2C(=O)O` [Amph.B, Amphotericin B, reference compound]: the midpoint of cytotoxicity under setting [1], the CC50, lay at 9.8 µM.
As to `O=C(/C=C/c1ccc([N+](=O)[O-])o1)c1ccc(C2CCCCC2)cc1` [LabMol-72], the 50% cytotoxic concentration (CC50) under setting [1] was determined as 31.1 µM. Compared with the last compound, the CC50 is about 3.2-fold higher.
With `O=C(/C=C/c1ccc([N+](=O)[O-])o1)c1ccc(I)cc1` [LabMol-78], the CC50 under setting [1] worked out at 49.5 µM.
Under setting [1], `CC(C)(C)c1ccc(C(=O)/C=C/c2ccc([N+](=O)[O-])s2)cc1` [LabMol-86] yielded a CC50 of 8.4 µM.
As for `CSc1ccc(C(=O)/C=C/c2ccc([N+](=O)[O-])o2)cc1` [LabMol-92], the half-maximal cytotoxic concentration (CC50) was 13.1 µM.
